Experiment [1] concerns the target T1, Heat shock 70 kDa protein 1A (Homo sapiens, UniProt P0DMV8). Description: Hsp70 inhibitors, biochemical, TR-FRET (AID 786). For orientation: Time-resolved FRET reads energy transfer from a long-lived donor to a nearby acceptor.
Experiment [2] concerns the target T1, Heat shock 70 kDa protein 1A. Description: Hsp70 inhibitors, probe displacement, primary screen, biochemical, fluorescence polarization (AID 583). A general note: Polarisation of emitted light reports the rotation of a fluorescent probe.
In another experiment the test system is Vero. Description: cells. The conditions noted are these: Chlorocebus sabaeus. It counts as functional.
The target in another experiment is Vasopressin V1a receptor (Homo sapiens, UniProt P37288). Description: Counterscreen for Oxytocin Receptor (OXTR) agonists: Fluorescence-based cell-based high throughput dose response assay to identify agonists of the vasopressin 1 receptor (V1R). [Related pubchem assays: 2435 (Primary screen (OXTR agonists in singlicate)), 434991 (Counterscreen (V1R agonists in triplicate)), 2482 (Summary (OXTR agonists)) …. It counts as functional.
Vasopressin V1a receptor, sequence (P37288 whole entry): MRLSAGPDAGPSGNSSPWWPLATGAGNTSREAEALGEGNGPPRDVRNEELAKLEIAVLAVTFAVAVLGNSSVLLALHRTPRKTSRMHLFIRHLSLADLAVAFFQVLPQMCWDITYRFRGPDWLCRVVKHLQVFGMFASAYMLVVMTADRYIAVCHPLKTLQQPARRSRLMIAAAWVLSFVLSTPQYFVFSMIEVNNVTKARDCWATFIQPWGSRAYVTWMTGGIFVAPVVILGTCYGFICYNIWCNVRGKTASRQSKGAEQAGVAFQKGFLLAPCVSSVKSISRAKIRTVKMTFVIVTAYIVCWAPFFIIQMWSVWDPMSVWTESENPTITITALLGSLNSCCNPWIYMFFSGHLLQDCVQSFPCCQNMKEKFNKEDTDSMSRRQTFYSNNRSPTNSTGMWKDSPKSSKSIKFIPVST

The next experiment addresses Oxytocin receptor (Homo sapiens, UniProt P30559). Description: Fluorescence-based cell-based high throughput dose response assay for agonists of the Oxytocin Receptor (OXTR). [Related pubchem assays: 2435 (Primary screen (OXTR agonists in singlicate)), 434991 (Counterscreen (V1R agonists in triplicate)), 2482 (Summary (OXTR agonists)), 434963 (Confirmation screen (OXTR agonists in triplicate))]. The format is functional.

A short description of experiment [3]: Counterscreen for IDE inhibitors: Luminescence-based cell-based high throughput dose response assay to identify compounds that are cytotoxic to HEK cells. [Related pubchem assays: 434962 (Primary screen (IDE inhibitors in singlicate)), 449730 (Counterscreen (Cytotoxicity in triplicate)), 435028 (Confirmation (IDE inhibitors in triplicate)) …. The format is functional. The conditions noted are these: HEK293.

A further experiment concerns the target T2, Insulin-degrading enzyme (Homo sapiens, UniProt P14735).
T2 sequence (P14735 whole entry): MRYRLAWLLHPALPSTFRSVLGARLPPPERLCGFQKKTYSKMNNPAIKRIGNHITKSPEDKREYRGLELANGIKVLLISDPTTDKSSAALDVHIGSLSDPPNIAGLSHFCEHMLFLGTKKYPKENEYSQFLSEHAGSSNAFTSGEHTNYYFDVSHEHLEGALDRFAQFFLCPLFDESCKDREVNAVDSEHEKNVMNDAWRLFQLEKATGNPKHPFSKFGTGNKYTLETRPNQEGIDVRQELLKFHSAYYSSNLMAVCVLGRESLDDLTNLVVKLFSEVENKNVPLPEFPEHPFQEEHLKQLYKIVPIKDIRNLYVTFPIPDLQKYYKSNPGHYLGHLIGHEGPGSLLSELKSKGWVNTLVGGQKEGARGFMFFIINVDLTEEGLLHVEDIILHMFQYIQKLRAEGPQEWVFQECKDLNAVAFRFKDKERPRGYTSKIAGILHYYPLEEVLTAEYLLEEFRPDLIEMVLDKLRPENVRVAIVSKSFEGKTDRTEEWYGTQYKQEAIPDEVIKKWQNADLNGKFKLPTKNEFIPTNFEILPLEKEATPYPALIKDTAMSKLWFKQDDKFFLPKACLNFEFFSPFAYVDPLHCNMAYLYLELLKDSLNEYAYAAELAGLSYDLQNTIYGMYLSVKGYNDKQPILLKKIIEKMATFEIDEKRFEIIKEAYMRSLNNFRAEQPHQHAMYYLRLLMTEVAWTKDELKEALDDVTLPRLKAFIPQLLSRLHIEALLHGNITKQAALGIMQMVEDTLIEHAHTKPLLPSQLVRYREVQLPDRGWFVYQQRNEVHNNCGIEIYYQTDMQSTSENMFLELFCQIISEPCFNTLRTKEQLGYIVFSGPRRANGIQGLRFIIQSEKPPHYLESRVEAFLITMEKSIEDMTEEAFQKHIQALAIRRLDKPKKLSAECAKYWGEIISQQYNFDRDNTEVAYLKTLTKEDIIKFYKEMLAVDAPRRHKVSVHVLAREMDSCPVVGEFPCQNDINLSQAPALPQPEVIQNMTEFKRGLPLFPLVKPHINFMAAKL
Description: Dose Response: Fluorescence polarization-based cell-based high throughput dose response assay for inhibitors of insulin-degrading enzyme (IDE). [Related pubchem assays: 434962 (Primary screen (IDE inhibitors in singlicate)), 449730 (Counterscreen (Cytotoxicity in triplicate)), 435028 (Confirmation (IDE inhibitors in triplicate)), 434984 (Summary …. It counts as functional.

Experiment [4] has as its target Mothers against decapentaplegic homolog 3 (Homo sapiens, UniProt P84022). Description: Smad3 binding inhibitors, lysate ELISA, dose response, cell lysate, secondary confirmation, chemiluminescent ELISA, HEK293 lysate (AID 1058). The format is functional. On the technique in general: In an ELISA, binding on a coated surface is turned into a signal by an enzyme label.

In the next experiment the target is Wee1-like protein kinase (Homo sapiens, UniProt P30291). Description: Dose Response Cell-based Assay for Inhibitors of Wee1 Degradation. [Related pubchem assays: 1410, 1321 ]. The format is functional.
Wee1-like protein kinase, sequence (P30291 whole entry): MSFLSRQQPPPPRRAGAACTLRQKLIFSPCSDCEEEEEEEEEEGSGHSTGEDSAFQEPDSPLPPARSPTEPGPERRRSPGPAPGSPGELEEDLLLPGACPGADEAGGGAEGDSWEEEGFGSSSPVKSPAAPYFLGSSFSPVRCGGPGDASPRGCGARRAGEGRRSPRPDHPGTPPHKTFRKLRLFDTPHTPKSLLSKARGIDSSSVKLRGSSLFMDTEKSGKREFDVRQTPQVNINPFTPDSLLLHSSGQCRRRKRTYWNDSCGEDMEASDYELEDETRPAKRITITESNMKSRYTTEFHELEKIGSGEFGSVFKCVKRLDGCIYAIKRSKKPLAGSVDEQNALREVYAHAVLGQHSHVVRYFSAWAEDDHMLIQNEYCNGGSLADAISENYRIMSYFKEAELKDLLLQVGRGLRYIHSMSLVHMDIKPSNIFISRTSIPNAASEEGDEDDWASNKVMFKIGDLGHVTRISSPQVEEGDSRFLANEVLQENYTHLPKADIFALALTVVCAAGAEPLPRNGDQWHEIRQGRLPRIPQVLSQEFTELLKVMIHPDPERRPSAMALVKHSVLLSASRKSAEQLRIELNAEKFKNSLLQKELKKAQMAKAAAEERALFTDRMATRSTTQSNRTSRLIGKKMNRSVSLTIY
Experiment [5] in a line: cytotoxicity in HEK-293T cells, dose response, cytotoxicity control for TCR NF-kB inhibitor project, luminescence, T-cell screen hits (AID 489026).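 Note: cells exposed to compound about 14 hours before the viability readout.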 It counts as functional, cell-based.
Experiment [6] addresses G2/mitotic-specific cyclin-B1 (Homo sapiens, UniProt P14635). Description: Counterscreen assay for inhibitors of Wee1 degradation: dose response cell-based assay to identify inhibitors of cyclin B degradation. [Related pubchem assays: 1410, 1321 ]. It counts as functional.

Molecules are shown by their SMILES. The source made the active and inactive calls. Some results are limits rather than exact numbers.

T1 sequence (P0DMV8 whole entry): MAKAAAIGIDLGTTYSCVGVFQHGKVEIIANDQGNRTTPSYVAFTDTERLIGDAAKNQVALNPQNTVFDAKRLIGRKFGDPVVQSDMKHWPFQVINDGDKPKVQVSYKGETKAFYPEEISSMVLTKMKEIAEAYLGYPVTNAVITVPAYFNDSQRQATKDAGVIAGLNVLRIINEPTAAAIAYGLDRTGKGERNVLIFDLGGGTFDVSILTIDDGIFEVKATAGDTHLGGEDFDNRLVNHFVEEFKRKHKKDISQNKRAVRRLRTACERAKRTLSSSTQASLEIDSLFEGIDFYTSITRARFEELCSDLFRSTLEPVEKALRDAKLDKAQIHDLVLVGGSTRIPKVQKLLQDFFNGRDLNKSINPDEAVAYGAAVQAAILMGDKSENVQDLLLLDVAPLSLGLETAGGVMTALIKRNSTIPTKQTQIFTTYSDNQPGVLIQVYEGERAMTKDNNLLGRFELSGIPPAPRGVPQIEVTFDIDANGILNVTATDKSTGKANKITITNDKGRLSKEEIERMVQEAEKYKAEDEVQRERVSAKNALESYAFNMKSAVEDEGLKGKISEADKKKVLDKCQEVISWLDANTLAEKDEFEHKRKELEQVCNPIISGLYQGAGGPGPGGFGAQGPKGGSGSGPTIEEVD
G2/mitotic-specific cyclin-B1, sequence (P14635 whole entry): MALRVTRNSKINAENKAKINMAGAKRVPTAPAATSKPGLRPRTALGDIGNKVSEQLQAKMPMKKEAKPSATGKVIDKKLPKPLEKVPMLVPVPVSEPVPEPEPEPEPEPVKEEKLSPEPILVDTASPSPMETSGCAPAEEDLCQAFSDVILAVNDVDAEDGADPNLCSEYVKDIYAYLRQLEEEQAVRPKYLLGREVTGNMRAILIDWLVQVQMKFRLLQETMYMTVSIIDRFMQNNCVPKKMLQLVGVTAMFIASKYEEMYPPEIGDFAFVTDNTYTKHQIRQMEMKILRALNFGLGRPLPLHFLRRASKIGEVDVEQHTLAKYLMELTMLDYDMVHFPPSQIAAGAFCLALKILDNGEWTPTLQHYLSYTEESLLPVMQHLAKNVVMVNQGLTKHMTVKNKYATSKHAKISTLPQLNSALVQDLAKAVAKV
Oxytocin receptor, sequence (P30559 whole entry): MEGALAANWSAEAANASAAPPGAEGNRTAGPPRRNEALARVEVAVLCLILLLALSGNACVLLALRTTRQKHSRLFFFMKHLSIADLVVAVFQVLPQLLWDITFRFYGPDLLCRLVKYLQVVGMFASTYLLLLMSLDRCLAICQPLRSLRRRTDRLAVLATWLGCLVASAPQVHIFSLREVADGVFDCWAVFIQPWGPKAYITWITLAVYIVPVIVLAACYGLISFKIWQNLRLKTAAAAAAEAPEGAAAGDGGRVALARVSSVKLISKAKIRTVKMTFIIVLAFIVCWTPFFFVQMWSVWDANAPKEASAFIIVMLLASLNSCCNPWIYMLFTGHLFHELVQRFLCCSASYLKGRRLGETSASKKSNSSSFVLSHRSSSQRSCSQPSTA
Mothers against decapentaplegic homolog 3, sequence (P84022 whole entry): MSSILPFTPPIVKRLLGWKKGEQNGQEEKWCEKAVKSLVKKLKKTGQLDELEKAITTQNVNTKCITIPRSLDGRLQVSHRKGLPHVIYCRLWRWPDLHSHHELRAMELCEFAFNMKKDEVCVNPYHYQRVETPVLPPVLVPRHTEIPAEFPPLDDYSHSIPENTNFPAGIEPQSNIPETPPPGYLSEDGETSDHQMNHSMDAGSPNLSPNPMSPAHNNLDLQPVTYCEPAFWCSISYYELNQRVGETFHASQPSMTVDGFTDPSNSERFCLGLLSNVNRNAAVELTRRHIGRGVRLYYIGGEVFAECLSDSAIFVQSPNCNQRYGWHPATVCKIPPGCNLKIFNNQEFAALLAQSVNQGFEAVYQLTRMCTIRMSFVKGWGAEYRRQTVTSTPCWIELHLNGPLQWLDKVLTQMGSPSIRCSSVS

Take `CC(C)(C)n1nnnc1C(c1ccc2ncccc2c1)N1CCSCC1` (stereo unspecified): the half-inhibitory concentration (IC50) in experiment [1] and in experiment [2] was > 100 µM (not active) in each case.

Regarding `Cc1ccc(NS(=O)(=O)c2ccc(C(=O)NCC(c3ccco3)N3CCCCC3)cc2)cc1` (stereo unspecified), the CC50 with Vero is > 25 µM (active). Further, the EC50 at Vasopressin V1a receptor and at Oxytocin receptor was > 29.9 µM (not active) in each case.

Consider `Cc1c(NC(=O)/C(C#N)=C/c2ccc(-c3ccc(Cl)cc3)o2)c(=O)n(-c2ccccc2)n1C`, for which the IC50 in [3] is 11.1 µM (not active); on Insulin-degrading enzyme it was 2.7 µM (active).

In the case of `CN(C)c1ccc(C(c2cc3c(cc2O)OCO3)N2CCOCC2)cc1` (stereo unspecified), the half-maximal inhibitory concentration (IC50) in experiment [4] is > 40 µM (not active).

`Cc1csc2sc(-c3ccnc(SCC(=O)NCc4ccccc4)n3)c(C)c12`: the EC50 (on Wee1-like protein kinase; in experiment [6]) was > 49.7 µM (not active) each time. In experiment [5], the IC50 is > 80 µM (inactive).

A word on the IC50: it is the point on the concentration scale where inhibition reaches its midpoint. Broadly, the CC50 is the concentration giving 50% cytotoxicity. Usually EC50 stands for the concentration that produces a half-maximal response. Read a high EC50 as a need for much substance.

The values above are taken from ChEMBL document CHEMBL1201862, “PubChem BioAssay data set” (2004).
